This is an account of results in patent EP4610267A1, “CYCLIC DINUCLEOTIDES AND CONJUGATES THEREOF WITH ANTIBODIES” (priority 2024, dated 2025).

For data set [1], the target named is T1, STING HAQ (Homo sapiens, UniProt Q86WV6, G230A/H232R/R293Q/R71H).
T1 construct: expressed in transfected cells
Put plainly: 293T STING digitonin reporter assay (HAQ haplotype). It counts as cell-based. Conditions: digitonin permeabilised 293T reporter cells. On the procedure: Digitonin Assay with 293T Reporter Cells. The generation of 293T reporter cells stably expressing different STING protein haplotypes (WT, HAQ, REF, AQ, or Q) was described previously (Novotna et al, J. Med. Chem. 2019,62, 10676). The cells were seeded at a density of 250 000 cells per cm^2 into 96 well white poly(D-lysine) coated plates in 100 µL of DMEM with high glucose supplemented with 10% heat inactivated FBS. Next day, the medium was removed, and compounds were added in 3-fold serial dilutions in a digitonin buffer containing 50 mM HEPES (pH 7.0), 100 mM KCl, 3 mM MgClz, 0.1 mM DTT, 85 mM sucrose, 0.2% (w/w) BSA, 1 mM ATP, 0.1 mM GTP, and 10 µg/mL digitonin A. After 30 min incubation at 37 °C with 5% CO2, the digitonin buffer was removed, cells were washed once with 100 µL of the cultivation medium, and 100 µL of fresh medium was added to each well. The plates with cells were further incubated for 5 h at 37 °C with 5% CO2. Thereafter, 50 µL of the medium was removed, and 30 µL of Bright-Glo Luciferase Assay System reagent was added to each well. […] Nonlinear regression curve fit with standard slope was used for EC50 value calculations. The EC50 value represents CDN concentration that gives half-maximal response of firefly luciferase in the 293T reporter assay.

Data set [2] concerns CT26 mouse colon carcinoma. Briefly: CT26 mouse tumor model, intratumoral injection, tumor growth. It counts as in vivo, BALB/c mice. Conditions: 5mg/kg intratumorally on day 1, 4 and 8. As to the method:
The CT26 mouse colon carcinoma cell line was obtained from American Type Culture Collection (ATCC®, CRL-2638). The cells were cultured in RPMI-1640 medium containing 10% fetal bovine serum, 2 mM glutamine, 100 units/mL penicillin G sodium, and 100 µg/mL streptomycin sulfate at 37 °C in a humidified incubator with 5% CO2. On the day of tumor implantation in ten-week-old female BALB/c mice (Charles River Laboratories), CT26 cells harvested during the exponential growth phase were resuspended in phosphate-buffered saline (PBS) at a concentration of 1 × 10^7 cells/mL. Tumors were initiated by subcutaneous implantation of 1 × 10^6 CT26 cells (in a 0.1 mL suspension) into the right flank of each test animal. Tumor dimensions were measured in two directions, and tumor volumes were calculated using the formula (L × W^2)/2. Animals were pair matched when tumor reached volume 100 - 150 mm^3 (designated as day 1) and injected intratumorally (i.t.) on day 1, 4 and 8 with 5mg/kg or 1.5mg/kg Compound 2.2 or PBS in total volume 20 µL.

Data set [3] in a line: Pharmacokinetics of Compound 2.2 applied i.v. It counts as in vivo. Conditions: mice (Balb/c), 5mg/kg i.v. On the procedure:
Pharmacokinetics of Compound 2.2 applied I.V. at dose 5mg/kg was determined in Balb/c mice. Plasma samples were precipitated with methanol (final concetration 70%) spiked with internal standard, the precipited proteins were removed by centrigugation and supernatant was evaporated. The analytes were dissolved in 100 µL of 10 mM CH3COONH4 by vortexing for 5 min. Compound 22 along with the corresponding internal standard were separated and detected using a liquid chromatograph Exion LC AD with tandem mass spectrometer QTrap 6500+ (both Sciex) equipped with a separation column Acquity BEH C18 1.7 µm, 50 × 2.1 mm, as well as a guard column 1.7 µm C18, 5 × 2.1 mm (both Waters). The mobile phase (A) used for separation consisted of 10 mM CH3COONH4 in deionized water, while mobile phase (B) was composed of 10 mM CH3COONH4 in methanol. […] Analytes were monitored through their specific multiple reaction monitoring (MRM) transitions by utilizing electrospray ionization (ESI) in a positive mode with the following parameters: 50 msec dwell time, entrance potential 10 V, ion source temperature 350°C, ion spray voltage 5.5 kV, curtain gas (40 psi), GS1 gas (50 psi), and GS2 gas (50 psi). Quantification of Compound 2.2 was conducted using a weighted calibration curve (1/x^2) with a structurally similar internal standard.

T1 sequence (Q86WV6 whole entry R71H/G230A/H232R/R293Q): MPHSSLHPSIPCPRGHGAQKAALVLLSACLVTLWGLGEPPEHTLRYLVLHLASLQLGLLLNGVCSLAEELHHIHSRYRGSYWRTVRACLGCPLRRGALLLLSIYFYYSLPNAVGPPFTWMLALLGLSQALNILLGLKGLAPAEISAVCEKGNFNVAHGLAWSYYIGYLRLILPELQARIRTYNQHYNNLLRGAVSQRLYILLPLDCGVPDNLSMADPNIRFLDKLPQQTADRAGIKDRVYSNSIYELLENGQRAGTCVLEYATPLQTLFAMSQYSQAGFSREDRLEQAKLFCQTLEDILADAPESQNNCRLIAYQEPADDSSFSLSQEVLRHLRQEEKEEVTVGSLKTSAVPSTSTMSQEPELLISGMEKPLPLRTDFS

What is called EC50 is the midpoint of the concentration-response curve. A lower EC50 goes with greater potency. In turn, `Nc1ncnc2c1ncn2[C@@H]1O[C@@H]2OCP(=O)(S)O[C@@H]3[C@H](F)[C@@H](COP(=O)(S)OC[C@H]2[C@H]1F)O[C@H]3n1cnc2c(=O)[nH]cnc21` (single isomer, unassigned) [Compound 2.2] had an EC50 in data set [1] of 20 nM. The “animals tumor free on day 65 (out twelve tumor bearing animals)” value in data set [2] is on record as “Twelve”. Further, the half-life entry in data set [3] is listed as “less than 10 minutes”.
